The results in this text go back to patent US8399381B2, “Condensed heterocyclic sulfonyl urea compound, a herbicide containing the same, and a method for weed control using the same” (Sumitomo Chemical Company, Limited, priority 2002, dated 2013).

The subject of data set [1] is sulfonylurea herbicide-resistant Lindernia dubia subsp. major Pennell. The data set is described as follows: Paddy pot weeding test, flooded, two-leaf stage (Test Example 1). The format is in vivo. The conditions noted are these: 1 g/are, three weeks after treatment, resistant biotype, Kawanishi Town, Yamagata Pref. From the text:
(§1) A 5 cm×5 cm Jiffy Pot™ was charged with paddy soil, then water was introduced into each pot, seeds of sulfonylurea herbicide-sensitive Scirpus juncoides var. ohwianus, sulfonylurea herbicide-sensitive Lindernia procumbens (Krock.) Philcox, sulfonylurea herbicide-sensitive Lindernia dubia subsp. major Pennell, sulfonylurea herbicide-resistant Scirpus juncoides var. ohwianus, sulfonylurea herbicide-resistant Lindernia procumbens (Krock.) Philcox and sulfonylurea herbicide-resistant Lindernia dubia subsp. major Pennell were sowed therein and cultivated for a prescribed period under flooding conditions. When the plants reached the two-leave stage, the prescribed number of Jiffy Pots where the plants had been grown were transferred to a 150-cm^2 rectangular plastic pot, and water was introduced to a height of 3 cm, and a chemical diluent containing a compound was applied into the pot in an amount of 1 g/are. The chemical diluent was prepared by dissolving 1.5 g compound in 2 L of N,N-dimethylformamide (DMF) containing, 2% (W/V) surfactant Tween™ 20 and then diluting it with water to adjust the total volume to 10 L.

Data set [2] concerns sulfonylurea herbicide-resistant Scirpus juncoides var. ohwianus. Described as above. The format is in vivo. Conditions: 1 g/are, three weeks after treatment, resistant biotype, Iwamisawa City, Hokkaido.
Source text: as §1

Data set [3] has as its system sulfonylurea herbicide-sensitive Lindernia dubia subsp. major Pennell. The data set is described as above. The format is in vivo. The conditions noted are these: 1 g/are, three weeks after treatment, sensitive biotype, Makabe Town, Ibaraki Pref.
Source text: as §1

Data set [4] relates to sulfonylurea herbicide-sensitive Lindernia procumbens (Krock.) Philcox. The description is as above. The format is in vivo. The conditions noted are these: 1 g/are, three weeks after treatment, sensitive biotype, Kyoto Pref.
Source text: as §1

The subject of data set [5] is sulfonylurea herbicide-sensitive Scirpus juncoides var. ohwianus. The description is as above. The conditions noted are these: 1 g/are, three weeks after treatment, sensitive biotype, Kyoto Pref. The format is in vivo.
Source text: as §1

Data set [6] relates to sulfonylurea herbicide-resistant Lindernia procumbens (Krock.) Philcox. Described as above. Conditions: 1 g/are, three weeks after treatment, resistant biotype, Tajiri Town, Miyagi Pref. The format is in vivo.
Source text: as §1

What is called melting point is the temperature of the solid-liquid transition. As for `CCc1nc2ccc(C)nn2c1NC(=O)NS(=O)(=O)c1nc(OC)cc(OC)n1` [Compound No. 1], the melting point was 182 to 184 °C.
With `CCc1nc2ccc(Cl)nn2c1NC(=O)NS(=O)(=O)c1nc(OC)cc(OC)n1` [Compound No. 2], the melting point was 174 to 175 °C.
The molecule `CCOc1ccc2nc(CC)c(NC(=O)NS(=O)(=O)c3nc(OC)cc(OC)n3)n2n1` [Compound No. 5] registered a melting point of 180 to 181 °C.
The same measure, in the same setting: the same measure for `CCc1nc2ccc(OC)nn2c1NC(=O)NS(=O)(=O)c1nc(OC)cc(OC)n1` [Compound No. 6]: 118 to 123 °C (dec.); for `CCOc1ccc2nc(C(F)(F)F)c(NC(=O)NS(=O)(=O)c3nc(OC)cc(OC)n3)n2n1` [Compound No. 10]: 169 to 171 °C.
The molecule `CCSc1ccc2nc(C(F)(F)F)c(NC(=O)NS(=O)(=O)c3nc(OC)cc(OC)n3)n2n1` [Compound No. 11] yielded a melting point of 179 to 180 °C. In addition, the “R Lindernia dubia subsp. major Pennell (effect index)” value in data set [1] is recorded as 5 (excellent 81 to 100). For the same molecule, in data set [2], the “R Scirpus juncoides var. ohwianus (effect index)” value is listed as 5 (excellent 81 to 100). For the same molecule, the “S Lindernia dubia subsp. major Pennell (effect index)” value in data set [3] was 5 (excellent 81 to 100). For the same molecule, the “S Lindernia procumbens (Krock.) Philcox (effect index)” value in data set [4] is 5 (excellent 81 to 100). Further, the “S Scirpus juncoides var. ohwianus (effect index)” value in data set [5] is reported as 5 (excellent 81 to 100).
Take `COc1cc(OC)nc(S(=O)(=O)NC(=O)Nc2c(C)nc3c(C)cc(N(C)C)nn23)n1` [Compound No. 15]: the melting point was 266 to 268 °C (dec.).
Molecule `COc1cc(OC)nc(S(=O)(=O)NC(=O)Nc2c(C)nc3ccc(OC)nn23)n1` [Compound No. 17] yielded a melting point of 241 °C.
The same measure, in the same setting: then `COc1cc(OC)nc(S(=O)(=O)NC(=O)Nc2c(C)nc3c(C)cc(SC)nn23)n1` [Compound No. 20], with 191 to 193 °C (dec.); and `COc1cc(OC)nc(S(=O)(=O)NC(=O)Nc2c(C)nc3ccc(S(C)(=O)=O)nn23)n1` [Compound No. 21], with 246 to 248 °C (dec.); and `COc1cc(OC)nc(S(=O)(=O)NC(=O)Nc2c(Cl)nc3ccc(N(C)C)nn23)n1` [Compound No. 22], with 193 to 195 °C.
Regarding `CCOc1ccc2nc(Cl)c(NC(=O)NS(=O)(=O)c3nc(OC)cc(OC)n3)n2n1` [Compound No. 23], the melting point lay in the range of 168 to 169 °C. The “R Lindernia dubia subsp. major Pennell (effect index)” value in data set [1] was 4 (high 61 to 80). For the same molecule, in data set [2], the “R Scirpus juncoides var. ohwianus (effect index)” value was 5 (excellent 81 to 100). Moreover, the “S Lindernia dubia subsp. major Pennell (effect index)” value in data set [3] was 5 (excellent 81 to 100). Also, in data set [4], the “S Lindernia procumbens (Krock.) Philcox (effect index)” value is recorded as 5 (excellent 81 to 100). Further, in data set [5], the “S Scirpus juncoides var. ohwianus (effect index)” value was 5 (excellent 81 to 100).
`CCSc1ccc2nc(Cl)c(NC(=O)NS(=O)(=O)c3nc(OC)cc(OC)n3)n2n1` [Compound No. 25] displayed a melting point of 180 to 182 °C. Also, in data set [1], the “R Lindernia dubia subsp. major Pennell (effect index)” value is recorded as 4 (high 61 to 80). Also, the “R Scirpus juncoides var. ohwianus (effect index)” value in data set [2] is 5 (excellent 81 to 100). Further, in data set [3], the “S Lindernia dubia subsp. major Pennell (effect index)” value is recorded as 5 (excellent 81 to 100). Moreover, the “S Lindernia procumbens (Krock.) Philcox (effect index)” value in data set [4] is given as 5 (excellent 81 to 100). In addition, the “S Scirpus juncoides var. ohwianus (effect index)” value in data set [5] is 5 (excellent 81 to 100).
Take `COc1cc(C)nc(S(=O)(=O)NC(=O)Nc2c(Cl)nc3ccc(SC)nn23)n1` [Compound No. 27]: the melting point fell in the range of 172 to 174 °C.
Turning to `CCCc1nc2ccc(SC)nn2c1S(=O)(=O)NC(=O)Nc1nc(OC)cc(OC)n1` [Compound No. 31], in data set [1], the “R Lindernia dubia subsp. major Pennell (effect index)” value is given as 4 (high 61 to 80). In addition, in data set [2], the “R Scirpus juncoides var. ohwianus (effect index)” value was 5 (excellent 81 to 100). The “S Lindernia dubia subsp. major Pennell (effect index)” value in data set [3] is recorded as 5 (excellent 81 to 100). Besides, the “S Lindernia procumbens (Krock.) Philcox (effect index)” value in data set [4] was 5 (excellent 81 to 100). For the same molecule, the “S Scirpus juncoides var. ohwianus (effect index)” value in data set [5] was 5 (excellent 81 to 100).
Consider `CCCc1ccc2nc(C)c(S(=O)(=O)NC(=O)Nc3nc(OC)cc(OC)n3)n2n1` [Compound No. 36], for which the “R Lindernia dubia subsp. major Pennell (effect index)” value in data set [1] is 5 (excellent 81 to 100). Also, the “R Lindernia procumbens (Krock.) Philcox (effect index)” value in data set [6] is 5 (excellent 81 to 100). Moreover, in data set [2], the “R Scirpus juncoides var. ohwianus (effect index)” value was 5 (excellent 81 to 100). For the same molecule, the “S Lindernia dubia subsp. major Pennell (effect index)” value in data set [3] is given as 5 (excellent 81 to 100). Besides, in data set [4], the “S Lindernia procumbens (Krock.) Philcox (effect index)” value is on record as 5 (excellent 81 to 100). Moreover, in data set [5], the “S Scirpus juncoides var. ohwianus (effect index)” value is 5 (excellent 81 to 100).
With `CCCc1ccc2nc(Cl)c(S(=O)(=O)NC(=O)Nc3nc(OC)cc(OC)n3)n2n1` [Compound No. 38, 1-(2-chloro-6-n-propylimidazo[1,2-b]pyridazin-3-ylsulfonyl)-3-(4,6-dimethoxypyrimidin-2-yl)urea], the “R Lindernia dubia subsp. major Pennell (effect index)” value in data set [1] is listed as 5 (excellent 81 to 100). The “R Lindernia procumbens (Krock.) Philcox (effect index)” value in data set [6] is 5 (excellent 81 to 100). Also, in data set [2], the “R Scirpus juncoides var. ohwianus (effect index)” value is given as 5 (excellent 81 to 100). For the same molecule, the “S Lindernia dubia subsp. major Pennell (effect index)” value in data set [3] is 5 (excellent 81 to 100). The “S Lindernia procumbens (Krock.) Philcox (effect index)” value in data set [4] is reported as 5 (excellent 81 to 100). Also, in data set [5], the “S Scirpus juncoides var. ohwianus (effect index)” value is reported as 5 (excellent 81 to 100).
Take `COc1cc(OC)nc(NC(=O)NS(=O)(=O)c2c(C)nc3ccc(C(C)C)nn23)n1` [Compound No. 39]: the “R Lindernia dubia subsp. major Pennell (effect index)” value in data set [1] is 5 (excellent 81 to 100). In addition, the “R Lindernia procumbens (Krock.) Philcox (effect index)” value in data set [6] was 5 (excellent 81 to 100). The “R Scirpus juncoides var. ohwianus (effect index)” value in data set [2] is 5 (excellent 81 to 100). Further, the “S Lindernia dubia subsp. major Pennell (effect index)” value in data set [3] was 5 (excellent 81 to 100). In data set [4], the “S Lindernia procumbens (Krock.) Philcox (effect index)” value is 5 (excellent 81 to 100). In addition, in data set [5], the “S Scirpus juncoides var. ohwianus (effect index)” value is on record as 5 (excellent 81 to 100).
As to `COc1cc(OC)nc(NC(=O)NS(=O)(=O)c2c(Cl)nc3ccc(C(C)C)nn23)n1` [Compound No. 40], in data set [1], the “R Lindernia dubia subsp. major Pennell (effect index)” value was 5 (excellent 81 to 100). In addition, in data set [6], the “R Lindernia procumbens (Krock.) Philcox (effect index)” value is 5 (excellent 81 to 100). Also, the “R Scirpus juncoides var. ohwianus (effect index)” value in data set [2] is given as 5 (excellent 81 to 100). The “S Lindernia dubia subsp. major Pennell (effect index)” value in data set [3] is 5 (excellent 81 to 100). Besides, in data set [4], the “S Lindernia procumbens (Krock.) Philcox (effect index)” value is 5 (excellent 81 to 100). The “S Scirpus juncoides var. ohwianus (effect index)” value in data set [5] is on record as 5 (excellent 81 to 100).
`C=Cc1ccc2nc(Cl)c(S(=O)(=O)NC(=O)Nc3nc(OC)cc(OC)n3)n2n1` [Compound No. 43]: the “R Lindernia dubia subsp. major Pennell (effect index)” value in data set [1] is on record as 5 (excellent 81 to 100). The “R Scirpus juncoides var. ohwianus (effect index)” value in data set [2] is 4 (high 61 to 80). In data set [3], the “S Lindernia dubia subsp. major Pennell (effect index)” value was 5 (excellent 81 to 100). Also, in data set [4], the “S Lindernia procumbens (Krock.) Philcox (effect index)” value is 5 (excellent 81 to 100). The “S Scirpus juncoides var. ohwianus (effect index)” value in data set [5] is 5 (excellent 81 to 100).
On to `COc1cc(OC)nc(NC(=O)NS(=O)(=O)c2c(Cl)nc3ccc(C4CC4)nn23)n1` [Compound No. 44], for which the “R Lindernia dubia subsp. major Pennell (effect index)” value in data set [1] is 5 (excellent 81 to 100). The “R Scirpus juncoides var. ohwianus (effect index)” value in data set [2] is given as 4 (high 61 to 80). The “S Lindernia dubia subsp. major Pennell (effect index)” value in data set [3] is recorded as 5 (excellent 81 to 100). For the same molecule, the “S Lindernia procumbens (Krock.) Philcox (effect index)” value in data set [4] is listed as 5 (excellent 81 to 100). The “S Scirpus juncoides var. ohwianus (effect index)” value in data set [5] is 5 (excellent 81 to 100).
As for `C/C=C/c1ccc2nc(Cl)c(S(=O)(=O)NC(=O)Nc3nc(OC)cc(OC)n3)n2n1` [Compound No. 45], the “R Lindernia dubia subsp. major Pennell (effect index)” value in data set [1] was 5 (excellent 81 to 100). For the same molecule, the “R Scirpus juncoides var. ohwianus (effect index)” value in data set [2] was 4 (high 61 to 80). The “S Lindernia dubia subsp. major Pennell (effect index)” value in data set [3] is reported as 5 (excellent 81 to 100). For the same molecule, in data set [4], the “S Lindernia procumbens (Krock.) Philcox (effect index)” value is 5 (excellent 81 to 100). Also, in data set [5], the “S Scirpus juncoides var. ohwianus (effect index)” value was 5 (excellent 81 to 100).
Regarding `CCCc1ccc2nc(F)c(S(=O)(=O)NC(=O)Nc3nc(OC)cc(OC)n3)n2n1` [Compound No. 46], in data set [1], the “R Lindernia dubia subsp. major Pennell (effect index)” value is given as 5 (excellent 81 to 100). Besides, the “R Scirpus juncoides var. ohwianus (effect index)” value in data set [2] is 5 (excellent 81 to 100). Besides, the “S Lindernia dubia subsp. major Pennell (effect index)” value in data set [3] is 5 (excellent 81 to 100). In data set [4], the “S Lindernia procumbens (Krock.) Philcox (effect index)” value is recorded as 5 (excellent 81 to 100). For the same molecule, the “S Scirpus juncoides var. ohwianus (effect index)” value in data set [5] is recorded as 5 (excellent 81 to 100).
On to `CCOc1ccn2nc(C)c(NC(=O)NS(=O)(=O)c3nc(OC)cc(OC)n3)c2n1` [compound 34], for which the “R Lindernia dubia subsp. major Pennell (effect index)” value in data set [1] is 5 (excellent 81 to 100). For the same molecule, the “R Scirpus juncoides var. ohwianus (effect index)” value in data set [2] is reported as 4 (high 61 to 80). In addition, the “S Lindernia procumbens (Krock.) Philcox (effect index)” value in data set [4] was 5 (excellent 81 to 100). Also, the “S Scirpus juncoides var. ohwianus (effect index)” value in data set [5] is listed as 4 (high 61 to 80).
